Source: patent publication US6340680B1, “Oxazinoquinolones useful for the treatment of viral infections” (Pharmacia and Upjohn Company, priority 1999, dated 2002)

Experiments:
Assay type in all cases: biochemical
HCMV polymerase = target: T1, HCMV polymerase (Human cytomegalovirus, UniProt P08546); assay: HCMV polymerase assay (scintillation proximity assay, modified version); conditions: modified SPA assay, compounds diluted in 100% DMSO, 4.5 mM DTT
T1 construct: made in house; host or cells: recombinant baculovirus-infected SF-9 cells
Method: (§1) The HCMV polymerase assay is performed using a scintillation proximity assay (SPA) as described in several references, such as N. D. Cook, et al., Pharmaceutical Manufacturing International, pages 49-53 (1992); K. Takeuchi, Laboratory Practice, September issue (1992); U.S. Pat. No. 4,568,649 (1986); which are incorporated by reference herein. Reactions are performed in 96-well plates. The assay is conducted in 100 μl volume with 5.4 mM HEPES (pH 7.5), 11.7 mM KCl, 4.5 mM MgCl2, 0.36 mg/ml BSA, and 90 nM ^3H-dTTP. Assays are run with and without CHAPS, (3-[(3-Cholamidopropyl)-dimethylammonio]-1-propane-sulfonate) at a final concentration of 2 mM. HCMV polymerase is diluted in enzyme dilution buffer containing 50% glycerol, 250 mM NaCl, 10 mM HEPES (pH 7.5), 100 μg/ml BSA, and 0.01% sodium azide. The HCMV polymerase, which is expressed in recombinant baculovirus-infected SF-9 cells and purified according to literature procedures, is added at 10% (or 10 μl) of the final reaction volume, i.e., 100 μl. Compounds are diluted in 50% DMSO and 10 μl are added to each well. Control wells contain an equivalent concentration of DMSO. Unless noted otherwise, reactions are initiated via the addition of 6 nM biotinylated poly(dA)-oligo(dT) template/primer to reaction mixtures containing the enzyme, substrate, and compounds of interest. Plates are incubated in a 25 C or 37 C H2O bath and terminated via the addition of 40 μl/reaction of 0.5 M EDTA (pH 8) per well. Reactions are terminated within the time-frame during which substrate incorporation is linear and varied depending upon the enzyme and conditions used, i.e., 30 min. for HCMV polymerase. Ten μl of streptavidin-SPA beads (20 mg/ml in PBS/10% glycerol) are added following termination of the reaction. Plates are incubated 10 min. at 37 C, then equilibrated to room temperature, and counted on a Packard Topcount. Linear regressions are performed and IC50's are calculated using computer software.
A modified version of the above HCMV polymerase assay is performed as described above, but with the following changes: Compounds are diluted in 100% DMSO until final dilution into assay buffer. In the previous assay, compounds are diluted in 50% DMSO. 4.5 mM dithiotherotol (DTT) is added to the polymerase buffer. […] Other viral polymerase assays are performed using procedures similar to those described above.

HSV polymerase = HSV polymerase (Human herpesvirus 1, UniProt P04293); assay: HSV polymerase assay (similar procedure)
Method: as §1, with “Unless noted otherwise, reactions are initiated via the addition of 6 nM biotinylated poly(dA)-oligo(dT) template/primer to reaction mixtures containing the enzyme, substrate, and compounds of interest. Plates are incubated in a 25 C or 37 C H2O bath and terminated via the addition of 40 μl/reaction of 0.5 M EDTA (pH 8) per well. Reactions are terminated within the time-frame during which substrate incorporation is linear and varied depending upon the enzyme and conditions used, i.e., 30 min. for HCMV polymerase. Ten μl of streptavidin-SPA beads (20 mg/ml in PBS/10% glycerol) are added following termination of the reaction.” left out, “software. […]” for “software.”

VZV polymerase = VZV polymerase (Varicella-zoster virus, UniProt P09252); assay: VZV polymerase assay (similar procedure)
Method: as §1, with “Unless noted otherwise, reactions are initiated via the addition of 6 nM biotinylated poly(dA)-oligo(dT) template/primer to reaction mixtures containing the enzyme, substrate, and compounds of interest. Plates are incubated in a 25 C or 37 C H2O bath and terminated via the addition of 40 μl/reaction of 0.5 M EDTA (pH 8) per well. Reactions are terminated within the time-frame during which substrate incorporation is linear and varied depending upon the enzyme and conditions used, i.e., 30 min. for HCMV polymerase. Ten μl of streptavidin-SPA beads (20 mg/ml in PBS/10% glycerol) are added following termination of the reaction.” left out, “software. […]” for “software.”

T1 sequence (P08546 whole entry): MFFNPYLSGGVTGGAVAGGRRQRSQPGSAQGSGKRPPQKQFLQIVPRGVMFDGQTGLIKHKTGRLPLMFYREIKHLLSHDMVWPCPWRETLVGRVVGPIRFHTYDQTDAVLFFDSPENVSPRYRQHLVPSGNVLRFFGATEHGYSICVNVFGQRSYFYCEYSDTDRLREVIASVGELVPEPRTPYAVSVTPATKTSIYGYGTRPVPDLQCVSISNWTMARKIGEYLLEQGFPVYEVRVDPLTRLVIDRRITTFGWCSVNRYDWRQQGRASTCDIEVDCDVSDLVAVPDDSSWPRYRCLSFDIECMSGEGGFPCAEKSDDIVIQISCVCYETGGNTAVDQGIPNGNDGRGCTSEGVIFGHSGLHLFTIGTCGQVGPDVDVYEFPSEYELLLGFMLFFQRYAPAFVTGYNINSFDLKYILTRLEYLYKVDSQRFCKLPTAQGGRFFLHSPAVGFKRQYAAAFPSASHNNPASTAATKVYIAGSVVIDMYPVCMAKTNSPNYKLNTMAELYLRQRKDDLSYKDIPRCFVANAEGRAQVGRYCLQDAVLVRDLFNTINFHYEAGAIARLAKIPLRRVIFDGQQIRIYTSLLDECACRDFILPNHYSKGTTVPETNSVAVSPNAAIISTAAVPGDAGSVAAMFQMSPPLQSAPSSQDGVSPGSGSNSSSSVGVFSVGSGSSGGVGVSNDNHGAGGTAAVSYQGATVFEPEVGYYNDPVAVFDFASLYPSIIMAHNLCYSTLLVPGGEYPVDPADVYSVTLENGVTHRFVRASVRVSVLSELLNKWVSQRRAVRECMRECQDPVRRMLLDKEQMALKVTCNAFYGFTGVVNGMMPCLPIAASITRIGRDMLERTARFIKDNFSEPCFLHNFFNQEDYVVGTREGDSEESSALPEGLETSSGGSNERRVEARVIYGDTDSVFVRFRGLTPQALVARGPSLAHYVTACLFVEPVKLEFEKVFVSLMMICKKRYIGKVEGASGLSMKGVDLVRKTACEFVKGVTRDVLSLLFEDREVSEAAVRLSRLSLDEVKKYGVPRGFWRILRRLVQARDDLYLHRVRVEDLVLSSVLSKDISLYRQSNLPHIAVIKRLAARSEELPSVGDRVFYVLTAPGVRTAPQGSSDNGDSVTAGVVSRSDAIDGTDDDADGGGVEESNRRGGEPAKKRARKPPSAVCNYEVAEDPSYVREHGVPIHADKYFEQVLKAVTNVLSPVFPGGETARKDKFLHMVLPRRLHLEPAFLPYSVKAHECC
Chain of HSV polymerase (P04293 whole entry): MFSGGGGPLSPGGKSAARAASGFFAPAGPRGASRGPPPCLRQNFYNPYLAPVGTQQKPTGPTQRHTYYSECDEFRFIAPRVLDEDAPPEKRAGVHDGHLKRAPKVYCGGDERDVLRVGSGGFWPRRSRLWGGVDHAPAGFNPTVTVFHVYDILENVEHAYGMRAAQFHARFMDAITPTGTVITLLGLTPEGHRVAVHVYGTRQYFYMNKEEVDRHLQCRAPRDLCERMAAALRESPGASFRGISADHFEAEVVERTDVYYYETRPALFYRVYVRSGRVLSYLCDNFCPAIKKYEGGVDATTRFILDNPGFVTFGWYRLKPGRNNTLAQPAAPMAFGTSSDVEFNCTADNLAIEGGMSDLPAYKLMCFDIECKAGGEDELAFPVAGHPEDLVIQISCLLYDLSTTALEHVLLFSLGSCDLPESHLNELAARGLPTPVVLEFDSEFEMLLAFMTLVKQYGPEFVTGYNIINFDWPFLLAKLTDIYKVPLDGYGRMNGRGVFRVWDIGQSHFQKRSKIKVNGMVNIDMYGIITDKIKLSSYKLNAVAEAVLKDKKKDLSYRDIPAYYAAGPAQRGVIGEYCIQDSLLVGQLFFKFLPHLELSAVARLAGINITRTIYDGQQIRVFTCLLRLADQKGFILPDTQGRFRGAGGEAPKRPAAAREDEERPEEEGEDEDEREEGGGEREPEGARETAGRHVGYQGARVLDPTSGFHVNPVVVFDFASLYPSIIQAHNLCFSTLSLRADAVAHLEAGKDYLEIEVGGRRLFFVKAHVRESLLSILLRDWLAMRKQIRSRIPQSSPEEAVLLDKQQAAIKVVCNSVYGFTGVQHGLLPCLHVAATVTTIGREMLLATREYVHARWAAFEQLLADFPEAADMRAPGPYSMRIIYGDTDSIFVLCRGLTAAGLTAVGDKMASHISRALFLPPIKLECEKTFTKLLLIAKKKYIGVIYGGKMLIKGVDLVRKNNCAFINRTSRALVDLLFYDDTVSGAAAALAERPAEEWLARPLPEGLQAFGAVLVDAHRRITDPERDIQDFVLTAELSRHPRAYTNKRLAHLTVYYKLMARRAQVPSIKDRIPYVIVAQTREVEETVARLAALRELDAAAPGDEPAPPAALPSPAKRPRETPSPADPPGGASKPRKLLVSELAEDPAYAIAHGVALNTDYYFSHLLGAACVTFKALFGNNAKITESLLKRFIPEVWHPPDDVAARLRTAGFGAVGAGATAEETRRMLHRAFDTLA
Chain of VZV polymerase (P09252 whole entry): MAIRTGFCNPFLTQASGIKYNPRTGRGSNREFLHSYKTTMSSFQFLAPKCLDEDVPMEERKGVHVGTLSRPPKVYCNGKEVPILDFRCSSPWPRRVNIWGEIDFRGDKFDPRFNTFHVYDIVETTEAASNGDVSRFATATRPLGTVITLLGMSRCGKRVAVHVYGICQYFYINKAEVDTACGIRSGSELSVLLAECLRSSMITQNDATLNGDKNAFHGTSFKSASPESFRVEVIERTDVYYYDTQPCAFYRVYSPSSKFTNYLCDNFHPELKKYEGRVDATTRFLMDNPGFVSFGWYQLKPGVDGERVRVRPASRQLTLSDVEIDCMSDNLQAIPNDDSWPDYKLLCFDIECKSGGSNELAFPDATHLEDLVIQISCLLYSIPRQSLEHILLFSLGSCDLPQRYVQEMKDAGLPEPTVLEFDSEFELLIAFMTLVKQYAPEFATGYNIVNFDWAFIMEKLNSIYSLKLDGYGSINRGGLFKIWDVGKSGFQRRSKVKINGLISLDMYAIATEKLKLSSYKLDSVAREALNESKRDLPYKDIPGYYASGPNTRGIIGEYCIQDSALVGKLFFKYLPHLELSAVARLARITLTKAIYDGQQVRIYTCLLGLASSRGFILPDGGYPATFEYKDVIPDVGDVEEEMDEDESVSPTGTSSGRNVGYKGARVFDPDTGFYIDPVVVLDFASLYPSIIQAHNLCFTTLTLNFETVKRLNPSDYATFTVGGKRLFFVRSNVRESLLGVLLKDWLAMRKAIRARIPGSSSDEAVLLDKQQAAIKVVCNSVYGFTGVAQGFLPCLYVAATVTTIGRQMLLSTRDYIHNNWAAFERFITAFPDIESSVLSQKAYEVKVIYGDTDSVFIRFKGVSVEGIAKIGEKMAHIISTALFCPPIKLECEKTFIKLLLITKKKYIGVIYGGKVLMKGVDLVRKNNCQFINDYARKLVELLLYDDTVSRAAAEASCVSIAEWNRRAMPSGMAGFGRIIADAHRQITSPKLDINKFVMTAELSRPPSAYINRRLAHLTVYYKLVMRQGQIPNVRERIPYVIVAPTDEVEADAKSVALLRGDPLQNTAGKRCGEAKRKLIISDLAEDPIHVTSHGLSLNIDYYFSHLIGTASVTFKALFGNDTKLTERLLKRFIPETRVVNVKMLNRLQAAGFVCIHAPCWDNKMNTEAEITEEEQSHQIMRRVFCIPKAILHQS

| IC50 (HCMV polymerase) | IC50 (HSV polymerase) | IC50 (VZV polymerase) | SMILES |
| --- | --- | --- | --- |
| 480 nM | – | – | O=C(NCc1ccc(Cl)cc1)c1cn2c3c(cc(CN4CCOCC4)cc3c1=O)OCC2 [Example 1, N-(4-Chlorobenzyl)-9-(4-morpholinylmethyl)-7-oxo-2,3-dihydro-7H-[1,4]oxazino[2,3,4-ij]quinoline-6-carboxamide] |
| 1200 nM | – | – | O=C(NCc1ccc(Cl)cc1)c1cn2c3c(cc(C#CCO)cc3c1=O)OCC2 [Example 2, N-(4-Chlorobenzyl)-9-(3-hydroxy-1-propynyl)-7-oxo-2,3-dihydro-7H-[1,4]oxazino[2,3,4-ij]quinoline-6-carboxamide] |
| < 310 nM | 440 nM | 210 nM | O=C(NCc1ccc(Cl)cc1)c1cn2c3c(cc(CCCO)cc3c1=O)OCC2 [Example 3A, N-(4-Chlorobenzyl)-9-(3-hydroxypropyl)-7-oxo-2,3-dihydro-7H-[1,4]oxazino[2,3,4-ij]quinoline-6-carboxamide] |
| 1800 nM | – | – | CCCc1cc2c3c(c1)c(=O)c(C(=O)NCc1ccc(Cl)cc1)cn3CCO2 [Example 3B, N-(4-Chlorobenzyl)-7-oxo-9-propyl-2,3-dihydro-7H-[1,4]oxazino[2,3,4-ij]quinoline-6-carboxamide] |
